pIC50: −log10 of the molar value. Like-named read-outs stand apart in the source and are kept apart here.
How the values were obtained:
[1] = target: LmPDE-B1 (Leishmania major, UniProt Q6S997); assay: PDE activity assay in yeast lysates, recombinant LmPDE-B1 (3H-cAMP hydrolysis); type: biochemical; details: for pIC50: read-out: IC50, inhibition of LmPDE-B1 activity
Method: (§1) PP5 yeast cells expressing LmPDE-A, LmPDE-B1, and LmPDE-B2, were lysed as described previously (Zoraghi et al. (2001) J. Biol. Chem. 276, 11559-11566). The cells were grown to mid-log to end-log phase in SC-leu medium, collected, resuspended in the original volume of prewarmed YPD medium, and incubated for an additional 3.5 hours at 30° C. to maximize protein expression. The cells were then harvested, washed twice in H2O, pelleted by centrifugation, and stored overnight at −70° C. The cell pellet was thawed on ice and resuspended in ice-cold extraction buffer (50 mM Hepes pH 7.5, 100 mM NaCl, 1× Complete® protease inhibitor cocktail without EDTA (Roche)). Cells were lysed by grinding with glass beads (0.45-0.50 mm) in 2 ml Sarstedt tubes using a FastPrep FP120 cell disrupter (3×45 seconds at setting 4). The lysed cells were centrifuged and glycerol was added to the resulting supernatant to a final concentration of 15% (v/v). Aliquots were snap-frozen in liquid nitrogen and were stored at −70° C.
PDE activity was determined in 50 mM HEPES, pH 7.5, 0.5 mM EDTA, 10 mM MgCl2, and 50 mg/ml BSA in a final assay volume of 100 μl. Each assay contained 50,000 cpm of ^3H-labeled cAMP, with unlabeled cAMP added to adjust the desired total substrate concentration. […] The standard reaction time was set to 15 minutes, and the amount of enzyme was always chosen so that no more than 15% of the substrate was hydrolyzed. Inhibitor studies were done at a cAMP concentration of 1 μM. Inhibitors were dissolved in DMSO, but the final DMSO concentration in the assays never exceeded 1%. Control reactions with DMSO alone were always included. Reactions were stopped by the addition of 25 μl of 0.5 N HCl. For the subsequent dephosphorylation of the AMP, the stopped reactions were neutralized with 20 μl of 1 M Tris base, followed by the addition of 10 μl of alkaline phosphatase (Roche Diagnostics; 1 unit/10 μl). The dephosphorylation reactions were incubated for 15 minutes at 37° C. and were then applied to 1 ml columns of QAE-Sephadex A25 in 30 mM ammonium formiate, pH 6.0. The ^3H-adenosine formed as a reaction product was eluted with 1.6 ml of 30 mM ammonium formiate, pH 6.0 and was collected into 3.5 ml of water-soluble scintillation fluid (Packard Ultima Flo). Assays were performed in triplicate, and data were analyzed using the Graph Pad Prism software package.

[2] = test system: LmPDE-B2; assay: PDE activity assay in yeast lysates, recombinant LmPDE-B2 (3H-cAMP hydrolysis); type: biochemical, Leishmania major; details: 100 μM inhibitor, 1 μM cAMP
Method: as §1
PDE activity was determined in 50 mM HEPES, pH 7.5, 0.5 mM EDTA, 10 mM MgCl2, and 50 mg/ml BSA in a final assay volume of 100 μl. Each assay contained 50,000 cpm of ^3H-labeled cAMP, with unlabeled cAMP added to adjust the desired total substrate concentration. […] Assays were performed in triplicate, and data were analyzed using the Graph Pad Prism software package.

LmPDE-B1, sequence (Q6S997 entry or part of it): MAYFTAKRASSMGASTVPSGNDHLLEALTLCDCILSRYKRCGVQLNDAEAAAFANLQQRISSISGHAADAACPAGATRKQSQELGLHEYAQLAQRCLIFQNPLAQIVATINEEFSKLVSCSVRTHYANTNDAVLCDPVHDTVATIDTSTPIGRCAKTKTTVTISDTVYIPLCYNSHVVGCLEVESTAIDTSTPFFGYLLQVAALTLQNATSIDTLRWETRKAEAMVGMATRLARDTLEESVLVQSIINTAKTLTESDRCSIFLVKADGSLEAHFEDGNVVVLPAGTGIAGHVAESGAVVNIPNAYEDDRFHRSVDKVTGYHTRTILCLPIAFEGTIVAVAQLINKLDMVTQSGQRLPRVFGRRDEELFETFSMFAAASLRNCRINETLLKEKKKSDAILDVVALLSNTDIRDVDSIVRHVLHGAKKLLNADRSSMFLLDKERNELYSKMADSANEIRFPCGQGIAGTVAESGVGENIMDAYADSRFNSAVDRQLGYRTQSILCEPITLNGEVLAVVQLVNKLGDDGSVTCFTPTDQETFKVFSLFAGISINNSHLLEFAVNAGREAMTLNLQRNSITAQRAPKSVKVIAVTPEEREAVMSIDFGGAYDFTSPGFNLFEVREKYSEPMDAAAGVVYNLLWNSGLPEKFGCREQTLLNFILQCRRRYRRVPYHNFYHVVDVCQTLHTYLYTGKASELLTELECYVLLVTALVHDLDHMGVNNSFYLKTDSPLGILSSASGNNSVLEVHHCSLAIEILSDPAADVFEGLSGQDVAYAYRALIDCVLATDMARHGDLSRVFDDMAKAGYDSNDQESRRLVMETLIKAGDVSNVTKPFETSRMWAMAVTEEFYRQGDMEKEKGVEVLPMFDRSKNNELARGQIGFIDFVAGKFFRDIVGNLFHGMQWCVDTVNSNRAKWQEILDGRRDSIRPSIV

SMILES	pIC50 ([1]; 1 μM cAMP, yeast lysate)	sensitivity of LmPDE-B1 activity to PDE inhibitor ([1]; 100 μM inhibitor, 1 μM cAMP)	sensitivity of LmPDE-B2 activity to PDE inhibitor [2]	sensitivity of LmPDE-B1 activity to PDE inhibitor [1]	pIC50 [1]	effect on rate of hydrolysis of cAMP by LmPDE-B1 ([1]; 100-fold excess of cGMP)
COc1cc2c(cc1OC)-c1c/c(=N\c3c(C)cc(C)cc3C)n(C)c(=O)n1CC2 [trequinsin]	4.02	partly sensitive	partly sensitive	–	–	–
OCCN(CCO)c1nc(N2CCCCC2)c2nc(N(CCO)CCO)nc(N3CCCCC3)c2n1 [dipyridamole]	–	–	partly sensitive	partly sensitive	4.65	–
Nc1nc2c(ncn2[C@@H]2O[C@@H]3COP(=O)(O)O[C@H]3[C@H]2O)c(=O)[nH]1 [cGMP, cyclic guanosine mono-phosphate]	–	–	–	–	–	did not affect
